Measurements from US7563592B2, “Alizarin-based chromogenic substrates, their uses and composition containing same” (Biomerieux, S.A., priority 1999, dated 2009).

Key:
eight (8) species tested = assay: β-glucosidase detection in API strip wells, all species together (Example 6); format: cell-based; details: of the eight (8) species tested; 0.12 g/l + iron citrate 0.05 g/l
Escherichia coli 115 = assay: β-galactosidase detection in semi-solid Columbia medium (Example 1); format: cell-based
[1] = test system: Klebsiella pneumoniae 023; assay: as above; format: cell-based
Serratia marcescens 042 = assay: as above; format: cell-based
Aeromonas caviae = assay: β-galactosidase detection on semi-solid medium, clinical and environmental strains (Example 2); format: cell-based; details: 50 mg/l + iron citrate 500 mg/l; 18 hours; 7 strains tested
Providencia stuartii = assay: as above; format: cell-based; details: 50 mg/l + iron citrate 500 mg/l; 18 hours; 10 strains tested
Shigella sonnei = assay: as above; format: cell-based; details: 50 mg/l + iron citrate 500 mg/l; 18 hours; 10 strains tested
Yersinia enterocolitica = assay: as above; format: cell-based; details: 50 mg/l + iron citrate 500 mg/l; 18 hours; 14 strains tested
[2] = test system: Yersinia pseudotuberculosis; format: cell-based; details: 50 mg/l + iron citrate 500 mg/l; 18 hours; 3 strains tested
[3] = test system: β-galactosidase (EC 3.2.1.23 Sigma); assay: Effect of pH on β-D-galactosidase detection, substrate 0.05 g/l in water (Example 4); format: biochemical
Protocol: To each of eighteen tubes containing 5 ml of osmotically purified water, the following were added Alizarin-2-β-D-galactoside (0.05 g/l) and 5 μl of β-galactosidase (EC 3.2.1.23 Sigma). Ammoniacal iron citrate (0.05 g/l) was added to half of these tubes. […] Finally, the pH of these tubes was adjusted to different values (2-3-4-5-6-7-8-9-10) at 24° C.

For `O=C1c2ccccc2C(=O)c2c1ccc(O[C@@H]1O[C@H](CO)[C@@H](O)[C@H](O)[C@H]1O)c2O` [Alizarin-2-β-D-glucoside], the “species in which activity was detected” value (eight (8) species tested) was 7 species.

For `O=C1c2ccccc2C(=O)c2c1ccc(O[C@@H]1O[C@H](CO)[C@H](O)[C@H](O)[C@H]1O)c2O` [Alizarin-2-β-D-galactoside], the Color (Escherichia coli 115; 0.01 g/l + iron citrate, 18 H) was “purple”, the Intensity (Escherichia coli 115; 0.01 g/l + iron citrate, 18 H) was 0.3 and the Color (Escherichia coli 115; 0.01 g/l + iron citrate, 24 H) was “purple”. For the same compound, the Intensity (Escherichia coli 115; 0.01 g/l + iron citrate, 24 H) was 0.3, the Color (Escherichia coli 115; 0.01 g/l + iron citrate, 48 H) was “purple” and the Intensity (Escherichia coli 115; 0.01 g/l + iron citrate, 48 H) was 0.5. For the same compound, the Color (Escherichia coli 115; 0.03 g/l + iron citrate, 18 H) was “purple”, the Intensity (Escherichia coli 115; 0.03 g/l + iron citrate, 18 H) was 2.7 and the Color (Escherichia coli 115; 0.03 g/l + iron citrate, 24 H) was “purple”. The Intensity (Escherichia coli 115; 0.03 g/l + iron citrate, 24 H) was 2.7, the Color (Escherichia coli 115; 0.03 g/l + iron citrate, 48 H) was “purple” and the Intensity (Escherichia coli 115; 0.03 g/l + iron citrate, 48 H) was 3. For the same compound, the Color (Escherichia coli 115; 0.05 g/l + iron citrate, 18 H) was “purple”, the Intensity (Escherichia coli 115; 0.05 g/l + iron citrate, 18 H) was 3.5 and the Color (Escherichia coli 115; 0.05 g/l + iron citrate, 24 H) was “purple”. The Intensity (Escherichia coli 115; 0.05 g/l + iron citrate, 24 H) was 3.5, the Color (Escherichia coli 115; 0.05 g/l + iron citrate, 48 H) was “purple” and the Intensity (Escherichia coli 115; 0.05 g/l + iron citrate, 48 H) was 3.5. The Color (Escherichia coli 115; 0.08 g/l + iron citrate, 18 H) was “purple”, the Intensity (Escherichia coli 115; 0.08 g/l + iron citrate, 18 H) was 4 and the Color (Escherichia coli 115; 0.08 g/l + iron citrate, 24 H) was “purple”. The Intensity (Escherichia coli 115; 0.08 g/l + iron citrate, 24 H) was 4, the Color (Escherichia coli 115; 0.08 g/l + iron citrate, 48 H) was “purple” and the Intensity (Escherichia coli 115; 0.08 g/l + iron citrate, 48 H) was 4. The Color ([1]; 0.03 g/l + iron citrate, 18 H) was “purple”, the Intensity ([1]; 0.03 g/l + iron citrate, 18 H) was 0.3 and the Color ([1]; 0.03 g/l + iron citrate, 24 H) was “purple”. The Intensity ([1]; 0.03 g/l + iron citrate, 24 H) was 0.3, the Color ([1]; 0.03 g/l + iron citrate, 48 H) was “purple” and the Intensity ([1]; 0.03 g/l + iron citrate, 48 H) was 0.5. The Color ([1]; 0.05 g/l + iron citrate, 18 H) was “purple”, the Intensity ([1]; 0.05 g/l + iron citrate, 18 H) was 0.8 and the Color ([1]; 0.05 g/l + iron citrate, 24 H) was “purple”. For the same compound, the Intensity ([1]; 0.05 g/l + iron citrate, 24 H) was 1, the Color ([1]; 0.05 g/l + iron citrate, 48 H) was “purple” and the Intensity ([1]; 0.05 g/l + iron citrate, 48 H) was 1. The Color ([1]; 0.08 g/l + iron citrate, 18 H) was “purple”, the Intensity ([1]; 0.08 g/l + iron citrate, 18 H) was 1.5 and the Color ([1]; 0.08 g/l + iron citrate, 24 H) was “purple”. For the same compound, the Intensity ([1]; 0.08 g/l + iron citrate, 24 H) was 1.5, the Color ([1]; 0.08 g/l + iron citrate, 48 H) was “purple” and the Intensity ([1]; 0.08 g/l + iron citrate, 48 H) was 1.7. The Color (Serratia marcescens 042; 0.01 g/l + iron citrate, 48 H) was “purple”, the Intensity (Serratia marcescens 042; 0.01 g/l + iron citrate, 48 H) was 0.3 and the Color (Serratia marcescens 042; 0.03 g/l + iron citrate, 18 H) was “purple”. For the same compound, the Intensity (Serratia marcescens 042; 0.03 g/l + iron citrate, 18 H) was 0.5, the Color (Serratia marcescens 042; 0.03 g/l + iron citrate, 24 H) was “purple” and the Intensity (Serratia marcescens 042; 0.03 g/l + iron citrate, 24 H) was 1. The Color (Serratia marcescens 042; 0.03 g/l + iron citrate, 48 H) was “purple”, the Intensity (Serratia marcescens 042; 0.03 g/l + iron citrate, 48 H) was 1.7 and the Color (Serratia marcescens 042; 0.05 g/l + iron citrate, 18 H) was “purple”. For the same compound, the Intensity (Serratia marcescens 042; 0.05 g/l + iron citrate, 18 H) was 1, the Color (Serratia marcescens 042; 0.05 g/l + iron citrate, 24 H) was “purple” and the Intensity (Serratia marcescens 042; 0.05 g/l + iron citrate, 24 H) was 2.5. The Color (Serratia marcescens 042; 0.05 g/l + iron citrate, 48 H) was “purple”, the Intensity (Serratia marcescens 042; 0.05 g/l + iron citrate, 48 H) was 3 and the Color (Serratia marcescens 042; 0.08 g/l + iron citrate, 18 H) was “purple”. For the same compound, the Intensity (Serratia marcescens 042; 0.08 g/l + iron citrate, 18 H) was 2, the Color (Serratia marcescens 042; 0.08 g/l + iron citrate, 24 H) was “purple” and the Intensity (Serratia marcescens 042; 0.08 g/l + iron citrate, 24 H) was 2.5. For the same compound, the Color (Serratia marcescens 042; 0.08 g/l + iron citrate, 48 H) was “purple”, the Intensity (Serratia marcescens 042; 0.08 g/l + iron citrate, 48 H) was 3.5 and the “percentage of positive strains” value (Aeromonas caviae) was 86%. The “percentage of positive strains” value (Providencia stuartii) was 0%, the “percentage of positive strains” value (Shigella sonnei) was 100% and the “percentage of positive strains” value (Yersinia enterocolitica) was 64%. For the same compound, the “percentage of positive strains” value [2] was 67%, the “color of the tubes after incubation, before pH adjustment” value ([3]; 4 hours at 37° C., no Ammoniacal iron citrate) was “light pink” and the “pink coloration of the tubes after incubation, before pH adjustment” value ([3]; 4 hours at 37° C., with Ammoniacal iron citrate 0.05 g/l, versus tubes without) was “more intense”. For the same compound, the Color ([3]; pH 2, no iron) was “Yellow”, the Color ([3]; pH 2, with iron (Ammoniacal iron citrate 0.05 g/l)) was “Yellow” and the Color ([3]; pH 3, no iron) was “Yellow”. For the same compound, the Color ([3]; pH 3, with iron (Ammoniacal iron citrate 0.05 g/l)) was “Yellow”, the Color ([3]; pH 4, no iron) was “Yellow” and the Color ([3]; pH 4, with iron (Ammoniacal iron citrate 0.05 g/l)) was “Yellow”. For the same compound, the Color ([3]; pH 5, no iron) was “Yellow-Orange”, the Color ([3]; pH 5, with iron (Ammoniacal iron citrate 0.05 g/l)) was “Yellow-Pink” and the Color ([3]; pH 6, no iron) was “Pink-Orange”. For the same compound, the Color ([3]; pH 6, with iron (Ammoniacal iron citrate 0.05 g/l)) was “Pink”, the Color ([3]; pH 7, no iron) was “Pink-Orange” and the Color ([3]; pH 7, with iron (Ammoniacal iron citrate 0.05 g/l)) was “Pink”. The Color ([3]; pH 8, no iron) was “Pink”, the Color ([3]; pH 8, with iron (Ammoniacal iron citrate 0.05 g/l)) was “Purple” and the Color ([3]; pH 9, no iron) was “Purple”. For the same compound, the Color ([3]; pH 9, with iron (Ammoniacal iron citrate 0.05 g/l)) was “Purple”, the Color ([3]; pH 10, no iron) was “Mauve” and the Color ([3]; pH 10, with iron (Ammoniacal iron citrate 0.05 g/l)) was “Mauve”.
